Converted amounts (≈) assume the structure as drawn. Where a name gives a salt, the structure may show the parent alone. Read-outs that look alike come from different tables or passages of the source.
Columns and labels:
[1] = system: S.aureus BB5703; assay: In vitro antibacterial activity, agar plate dilution method; format: cell-based; conditions: Staphylococcus aureus, MH agar, 10⁶CFU/ml, 16 hours at 37°C, read-out: Minimum inhibitory concentration (MIC) S.aureus BB5703
Protocol: (§1) One platinum loopful portions of a test strain (quantity of each strain inoculated : 10⁶CFU/ml) cultured overnight in Mueller Hinton broth were inoculated respectively into MH agars containing an antibacterial agent in various concentrations. After 16 hours culture at 37°C, minimum inhibitory concentration (MIC: µg/ml) was measured.

[2] = system: S.aureus BB5769; assay: as above; format: cell-based; conditions: Staphylococcus aureus, MH agar, 10⁶CFU/ml, 16 hours at 37°C, read-out: Minimum inhibitory concentration (MIC) S.aureus BB5769
Protocol: as §1

[3] = system: S.aureus JS1; assay: as above; format: cell-based; conditions: Staphylococcus aureus, β-lactamase-producing bacterium, MH agar, 10⁶CFU/ml, 16 hours at 37°C, read-out: Minimum inhibitory concentration (MIC) S.aureus JS1
Protocol: as §1

[4] = system: L1210 cells; assay: In vitro cytotoxicity against L1210 murine leukemia (proliferation inhibition); format: cell-based; conditions: Mus musculus, read-out: IC₅₀
Protocol: In this experiment, respective 2 × 10⁴ L1210 cells were cultured at 37°C under 5% CO₂ gas for 3 days in respective RPMI 1640 media containing a drug in various concentrations and 10 % fetal bovine serum, and the numbers of the cells after the culture were counted using a Coulter counter.

[5] = target: T1, DNA topoisomerase I (Mus musculus, UniProt Q04750); assay: DNA topoisomerase inhibition activity (DNA relaxation, agarose-gel electrophoresis); format: biochemical, murine; conditions: relaxation of supercoiled pBR 322 plasmid DNA, 37°C for 10 minutes, enzyme from L1210 nuclei; read-out: IC₅₀ DNA topoisomerase I (converted)
T1 construct: obtained by purifying an extract from the nuclei of cells of L1210 murine leukemia by column chromatography; endogenous in cells; host or cells: L1210 murine leukemia cells (nuclear extract, purified on hydroxylapatite / phosphocellulose columns)
T1 sequence (Q04750 1-767): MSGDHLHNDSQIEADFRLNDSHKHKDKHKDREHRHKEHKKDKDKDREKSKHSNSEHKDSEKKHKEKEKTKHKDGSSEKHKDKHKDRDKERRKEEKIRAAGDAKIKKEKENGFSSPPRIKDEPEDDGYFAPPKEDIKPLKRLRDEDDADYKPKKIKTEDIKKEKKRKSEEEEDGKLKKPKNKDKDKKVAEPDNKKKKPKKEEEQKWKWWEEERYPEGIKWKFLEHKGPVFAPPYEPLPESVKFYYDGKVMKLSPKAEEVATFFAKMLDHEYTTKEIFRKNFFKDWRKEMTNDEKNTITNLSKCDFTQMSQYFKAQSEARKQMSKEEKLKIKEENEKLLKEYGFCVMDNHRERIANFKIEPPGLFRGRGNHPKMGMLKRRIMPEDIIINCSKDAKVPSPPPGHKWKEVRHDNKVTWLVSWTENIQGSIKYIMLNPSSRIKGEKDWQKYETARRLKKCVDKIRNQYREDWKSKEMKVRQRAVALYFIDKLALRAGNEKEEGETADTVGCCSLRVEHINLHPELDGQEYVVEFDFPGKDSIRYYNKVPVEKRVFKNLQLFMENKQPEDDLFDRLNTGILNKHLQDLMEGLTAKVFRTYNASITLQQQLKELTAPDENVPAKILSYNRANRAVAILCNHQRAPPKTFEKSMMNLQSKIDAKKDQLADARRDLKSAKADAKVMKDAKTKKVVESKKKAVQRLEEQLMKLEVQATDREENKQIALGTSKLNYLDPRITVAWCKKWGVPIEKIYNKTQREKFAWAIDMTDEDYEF
Protocol: (§2) In this experiment, as enzymes were used DNA topoisomerase I and DNA topoisomerase II obtained by purifying an extract from the nuclei of cells of L1210 murine leukemia by column chromatography using hydroxylapatite and phosphocellulose, respectively, and as a DNA was used supercoiled pBR 322 plasmid DNA.
(§3) Measurement of inhibition effect was made by the method disclosed in a literature, i. e. Okura et al., Biochem. Biophys. Res. Comm. 157, 183 - 189, 1988, namely by warming at 37°C for 10 minutes the supercoiled DNA in DNA topoisomerase I or DNA topoisomerase II solutions containing a drug in various concentrations, and then detecting the resultant topology changes of the DNA as changes of the electrophoretic images in agarose - gel electrophoresis.

[6] = target: DNA topoisomerase II; assay: as above; format: biochemical, murine; conditions: relaxation of supercoiled pBR 322 plasmid DNA, 37°C for 10 minutes, enzyme from L1210 nuclei
Protocol: as §2, §3

[7] = system: L1210; assay: Life-span prolonging effect on L1210 leukemia-bearing mice; format: in vivo, CDF₁ mice; conditions: for effect at an administration quantity of 0.02 mg/kg: life-span prolongation, 0.02 mg/kg intraperitoneal
Protocol: (§4) In this experiment, 10⁶ L1210 cells or 10⁴ P388 cells were intraperitoneally transplanted into CDF₁ mice (♀, 5 weeks old), a drug in the various concentrations was intraperitoneally injected once a day for continuous 10 days from the day after the transplantation, and survival periods after the tumor transplantation were recorded.

[8] = system: P388; assay: Life-span prolonging effect on P388 leukemia-bearing mice; format: in vivo, CDF₁ mice
Protocol: as §4

[9] = system: P388/VCR; assay: Proliferation inhibition, multiple drug-resistant P388 cells (MTT method); format: cell-based, murine; conditions: Mus musculus, 72 h, 3 days culture, read-out: IC₅₀ P388/VCR
Protocol: (§5) Proliferation inhibition effects againt P388/multiple drug - resistant cells were measured using vincristine and adriamycin as comparative compounds.
(§6) In this experiment, a drug - sensitive strain (P388/S) of a murine leukemia cell P388 and a drug - resistant strain (P388/VCR, T. Turuo, H. Iida, S. Tsukagoshi, et al., Cancer Research 42, 4730 - 4733, 1982) were suspended respectively in RPMI 1640 media containing a drug in various concentrations, 10 % fetal bovine serum and 20 µ M β - mercaptoethanol, respectively, and seeded in a 96 - well microtest plate in a number of 10⁴ cells/well, and cultured at 37°C under CO₂ gas for 3 days. Calculation of 50% proliferation inhibition concentration (IC₅₀) was made by the MTT method (M. C. Alley, D. A. Scudiero, A. Monks, et al., Cancer Research 48, 589 - 601, 1988).

[10] = system: P388/V; assay: Proliferation inhibition, drug-sensitive P388 cells (MTT method); format: cell-based, murine; conditions: Mus musculus, P388, 72 h, 3 days culture, read-out: IC₅₀ P388/V
Protocol: as §5, §6

[11] = Acute toxicity against a mouse; format: in vivo, CDF₁ mice; conditions: 5 mg/kg intravenously, observation for one week
Protocol: 5 mg/kg portions of the compound of Example 9 were intravenously injected into CDF₁ mice (♀, 5 weeks old) according to a conventional manner, respectively.

[12] = 72 h, L1210 cells, cultured 3 days, Coulter counter
[13] = dose 0.020 mg/kg intraperitoneally once a day for 10 days
[14] = dose 0.078 mg/kg intraperitoneally once a day for 10 days
[15] = dose 0.313 mg/kg intraperitoneally once a day for 10 days

Row | Structure (SMILES) | MIC [1] [µg/mL] | MIC [2] [µg/mL] | MIC [3] [µg/mL] | IC50 [4, 12] [µg/mL] | IC50 [5] [µM] | IC₅₀ DNA topoisomerase II [6] [µg/mL] | Mean survival days L1210 [7, 13] [days] | T/C % L1210 [7, 13] [%] | Mean survival days L1210 [7, 14] [days] | T/C % L1210 [7, 14] [%] | Mean survival days L1210 [7, 15] [days] | T/C % L1210 [7, 15] [%] | effect at an administration quantity of 0.02 mg/kg [7] | IC50 [9] [µg/mL] | IC50 [10] [µg/mL] | also measured
1 | CN[C@@H]1C=CC[C@@H]2CN(c3c(F)cc4c(=O)c(C(=O)O)cn(C5CC5)c4c3F)C[C@@H]21.O=C(O)C(F)(F)F (relative stereo) [Compound of Ex.2, 1 - cyclopropyl - 6, 8 - difluoro - 1, 4 - dihydro - 7 - [(1R*, 2R*, 6S*) - 2 - (N - methylamino) - 8 - azabicyclo [4.3.0]non - 3 - en - 8 - yl] - 4 - oxo - 3 - quinolinecarboxylic acid trifluoroacetate] | < 0.006 | < 0.006 | < 0.006 |  |  |  |  |  |  |  |  |  |  |  |  | 
2 | Cl.Nc1c(F)c(N2C[C@H]3CC=C[C@@H](N)[C@H]3C2)c(F)c2c1c(=O)c(C(=O)O)cn2C1CC1 (single isomer, unassigned) [Compound of Ex.13, (-) - 5 - amino - 7 - [(1R*, 2R*, 6S*) 2 - amino - 8 - azabicyclo [4.3.0]non - 3 - en - 8 - yl] - 1 - cyclopropyl - 6, 8 - difluoro - 1, 4 - dihydro - 4 - oxo - 3 - quinolinecarboxylic acid hydrochloride] | < 0.006 | < 0.006 | < 0.006 | 0.0015 | 221 | 4 |  |  |  |  |  |  |  |  |  | 
3 | N[C@@H]1C=CC[C@@H]2CN(c3c(F)cc4c(=O)c(C(=O)O)cn(C5CC5)c4c3F)C[C@@H]21.O=C(O)C(F)(F)F (relative stereo) [Compound of Ex.1, 7 - [(1R*, 2R*, 6S*) - 2 - amino - 8 - azabicyclo [4.3.0]non - 3 - en - 8 - yl] - 1 - cyclopropyl - 6, 8 - difluoro - 1, 4 - dihydro-4 - oxo - 3 - quinolinecarboxylic acid trifluoroacetate] | < 0.006 | < 0.006 | < 0.006 |  |  |  |  |  |  |  |  |  |  |  |  | 
4 | COc1c(N2C[C@H]3CC=C[C@@H](N)[C@H]3C2)c(F)cc2c(=O)c(C(=O)O)cn(C3CC3)c12 (relative stereo) [Compound of Ex.11, (-) - 7 - [(1R*, 2R*, 6S*) - 2 - amino - 8 - azabicyclo [4.3.0]non - 3 - en - 8 - yl] - 1 - cyclopropyl - 6 - fluoro - 1, 4 - dihydro - 8 - methoxy - 4 - oxo - 3 - quinolinecarboxlic acid hydrochloride] |  |  |  |  | 3020 | 2 | 25.8 | 188 | > 50.8 | 371 | 16.4 | 120 | effective |  |  | IC50 ([4]; L1210, 72 h): 0.032 µg/mL
5 | COc1cc([C@@H]2c3cc4c(cc3[C@@H](O[C@@H]3O[C@@H]5CO[C@@H](C)O[C@H]5[C@H](O)[C@H]3O)[C@H]3COC(=O)[C@H]23)OCO4)cc(OC)c1O [Etoposide, etoposide, reference compound] |  |  |  | 0.021 (≈ 0.0357 µM) |  |  | 14.2 | 104 | 22.8 | 166 | 31.4 | 229 | no effect |  |  | Mean survival days P388 [8, 13]: 12.8 days; T/C % P388 [8, 13]: 114%; Mean survival days P388 [8, 14]: 16.6 days; T/C % P388 [8, 14]: 148%; Mean survival days P388 [8, 15]: 22.2 days; T/C % P388 [8, 15]: 198%
6 | CC[C@]1(O)C[C@H]2CN(CCc3c([nH]c4ccccc34)[C@@](C(=O)OC)(c3cc4c(cc3OC)N(C=O)[C@H]3[C@@](O)(C(=O)OC)[C@H](OC(C)=O)[C@]5(CC)C=CCN6CC[C@]43[C@@H]65)C2)C1 [Vincristine, vincristine] |  |  |  |  |  |  |  |  |  |  |  |  |  | 0.019 (≈ 0.023 µM) | 0.00032 (≈ 0.000388 µM) | 
7 | CC[C@@]1(O)C(=O)OCc2c1cc1n(c2=O)Cc2cc3ccccc3nc2-1 [Camptothecin, camptothecin, reference compound] |  |  |  | 0.04 (≈ 0.115 µM) |  | > 10 |  |  |  |  |  |  |  |  |  | 
8 | COc1cccc2c1C(=O)c1c(O)c3c(c(O)c1C2=O)C[C@@](O)(C(=O)CO)C[C@@H]3O[C@H]1C[C@H](N)[C@H](O)[C@H](C)O1 [Adriamycin, adriamycin] |  |  |  |  |  |  |  |  |  |  |  |  |  | 0.063 (≈ 0.116 µM) | 0.021 (≈ 0.0386 µM) | 
9 | Cl.N[C@@H]1C=CC[C@@H]2CN(c3c(F)cc4c(=O)c(C(=O)O)cn(C5CC5)c4c3F)C[C@@H]21 (single isomer, unassigned) [Compound of Ex.9, (-) - 7 - [(1R*, 2R*, 6S*) - 2 - amino - 8 - azabicyclo [4.3.0]non - 3 - en - 8 - yl] - 1 - cyclopropyl - 6, 8 - difluoro - 1, 4 - dihydro - 4 - oxo - 3 - quinolinecarboxylic acid hydrochloride] |  |  |  | 0.019 | 457 | 2 | 31.0 | 226 | 32.4 | 236 | 21.2 | 155 | effective | 0.018 | 0.018 | death in acute toxicity test [11]: No case of death; Mean survival days P388 [8, 13]: 12.0 days; T/C % P388 [8, 13]: 107%; Mean survival days P388 [8, 14]: 14.0 days; T/C % P388 [8, 14]: 125%; Mean survival days P388 [8, 15]: 16.4 days; T/C % P388 [8, 15]: 146%

Source: patent EP0516861A1, “PYRIDONECARBOXYLIC ACID DERIVATIVE” (BANYU PHARMACEUTICAL CO., LTD., priority 1990, dated 1992)
